Measurements taken from ChEMBL document CHEMBL1153015, “A new type of five-membered heterocyclic inhibitors of basic metallocarboxypeptidases” (Eur J Med Chem, 2009).

Tests used:
[1] = target: T1, Carboxypeptidase B (Helicoverpa zea, UniProt Q3T905); assay: Inhibition of corn earworm recombinant carboxypeptidase B expressed in Pichia pastoris system
T1 sequence (Q3T905 whole entry): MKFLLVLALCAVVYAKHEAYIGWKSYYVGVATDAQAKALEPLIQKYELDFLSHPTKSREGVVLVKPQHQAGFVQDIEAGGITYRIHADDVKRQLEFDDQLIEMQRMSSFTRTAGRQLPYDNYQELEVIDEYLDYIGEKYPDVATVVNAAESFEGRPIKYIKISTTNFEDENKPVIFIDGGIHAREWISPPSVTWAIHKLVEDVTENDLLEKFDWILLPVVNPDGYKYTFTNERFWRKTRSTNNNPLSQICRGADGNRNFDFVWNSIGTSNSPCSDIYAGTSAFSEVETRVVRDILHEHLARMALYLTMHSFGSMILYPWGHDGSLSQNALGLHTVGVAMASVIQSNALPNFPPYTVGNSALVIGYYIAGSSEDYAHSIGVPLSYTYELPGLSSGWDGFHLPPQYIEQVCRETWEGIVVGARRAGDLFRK

[2] = target: T2, Carboxypeptidase A1 (Bos taurus, UniProt P00730); assay: Inhibition of bovine carboxypeptidase A1
T2 sequence (P00730 whole entry): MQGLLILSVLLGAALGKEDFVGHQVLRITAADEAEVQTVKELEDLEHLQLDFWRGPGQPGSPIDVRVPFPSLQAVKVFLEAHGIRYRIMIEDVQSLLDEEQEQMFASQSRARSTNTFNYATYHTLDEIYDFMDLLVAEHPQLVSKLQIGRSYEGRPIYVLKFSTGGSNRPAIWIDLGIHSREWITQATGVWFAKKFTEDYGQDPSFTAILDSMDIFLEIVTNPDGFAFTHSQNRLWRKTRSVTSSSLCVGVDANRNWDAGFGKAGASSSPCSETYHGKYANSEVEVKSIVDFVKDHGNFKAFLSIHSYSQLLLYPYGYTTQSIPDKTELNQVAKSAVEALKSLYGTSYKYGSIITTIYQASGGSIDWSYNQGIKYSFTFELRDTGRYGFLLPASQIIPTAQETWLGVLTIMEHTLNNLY

[3] = target: T3, Carboxypeptidase B (Homo sapiens, UniProt P15086); assay: Inhibition of human recombinant carboxypeptidase B expressed in Pichia pastoris system
T3 sequence (P15086 whole entry): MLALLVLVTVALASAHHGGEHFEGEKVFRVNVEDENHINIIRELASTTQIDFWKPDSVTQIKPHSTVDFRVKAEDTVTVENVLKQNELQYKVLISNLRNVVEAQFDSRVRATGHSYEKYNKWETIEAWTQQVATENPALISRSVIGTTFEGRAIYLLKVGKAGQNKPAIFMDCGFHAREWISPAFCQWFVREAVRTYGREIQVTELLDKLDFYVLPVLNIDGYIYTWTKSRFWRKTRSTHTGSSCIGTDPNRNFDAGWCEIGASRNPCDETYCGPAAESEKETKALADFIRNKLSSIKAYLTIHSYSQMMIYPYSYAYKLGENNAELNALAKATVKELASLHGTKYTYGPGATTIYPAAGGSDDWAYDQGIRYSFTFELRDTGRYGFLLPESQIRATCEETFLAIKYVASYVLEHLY

[4] = Selectivity ratio, Ki for bovine carboxypeptidase A1 to Ki for human recombinant carboxypeptidase B

| Ki ([1]; read-out: Ki) [µM] | Ki [2] [µM] | Ki [3] [µM] | Ki [1] | Ratio Ki [4] | Compound |
| --- | --- | --- | --- | --- | --- |
| 31 | 41.3 | 292 |  |  | COc1ccc(C(=O)Cn2nnc(-c3ccccc3NC(=O)C3CC3)n2)cc1 |
| 11.9 | 0.5 | 10 |  |  | O=C(O)CC(Cc1ccccc1)C(=O)O (racemic) |
| 27.2 | 155 | 11.6 |  |  | NC(=O)CSc1nnc(-c2cccs2)n1Cc1ccccc1 |
| 12.6 | 159 | 16.6 |  |  | Cc1cc(S(=O)(=O)N(Cc2ccco2)Cc2ccccc2Cl)ccc1-n1cnnn1 |
|  | 19.4 | 23 | Not Active |  | O=S(=O)(NCc1ccccc1)c1ccc(S(=O)(=O)N(Cc2cccs2)CC2CCCO2)cc1 (configuration not stated) |
| 36.1 | 160 | 7.4 |  |  | COc1ccccc1-c1nnc(SCC(=O)OC(C)C)n1Cc1ccccc1 |
|  |  | 1.1 |  |  | N=C(N)NCCSC(CC(=O)O)C(=O)O (racemic) |
| 19.6 | 320 | 20.7 |  |  | O=C(O)c1ccccc1C(=O)N1CCC(C(=O)c2ccccc2)CC1 |
| 1.2 | 800 | 4.5 |  | 160 | O=C(C1CC1)N(Cc1ccccc1)c1nc(-c2ccccc2)cs1 |
| 1.4 | 67.3 | 40 |  |  | O=S(=O)(NCc1cccs1)c1ccc(-c2nnc(SCc3ccccc3Cl)o2)cc1 |
| 30.2 | 381 | 20.8 |  |  | COc1ccccc1Cn1c(SCC(=O)N2CCC(C)CC2)nnc1-c1ccncc1 |
| 28.4 | 148 | 23.9 |  |  | COc1cccc(CN(Cc2cccnc2)S(=O)(=O)c2ccc(-n3cnnn3)c(C)c2)c1 |
| 19.7 | 128 | 25.1 |  |  | CCCN(C(=O)Cc1ccccc1OC)c1nnc(-c2ccc(OC)cc2)s1 |
| 9 | 86.3 | 15 |  |  | Cc1ccc(C)c2c1[nH]c1nc(SCC(=O)c3ccc(F)cc3)nnc12 |
|  | 74.5 | 9.1 | Not Active |  | O=C(CSc1nnc(-c2ccc(O)cc2)n1Cc1ccco1)c1cccs1 |
| 1 | 2.1 | 7.5 |  | 20 | O=C(CSc1nnc(-c2ccccc2O)o1)c1ccc(Cl)cc1 |
| 3.6 | 22.5 | 1.2 |  |  | COc1cccc(CSc2nnc(Cc3csc(Nc4cccc(Cl)c4)n3)o2)c1 |
| 57 | 217 | 196 |  |  | Cc1cccc(CCc2nnc(SCC(=O)O)n2Cc2ccccc2)c1 |
| 40 | 39.3 | 14.7 |  |  | Cc1ccccc1-c1nnc(SCC(=O)c2ccccc2F)o1 |
| 33.4 | 32 | 67.2 |  |  | O=C(CSc1nnc(-c2ccccc2F)o1)OCc1ccccc1 |
| 38 | 138 | 25.9 |  |  | Cc1ccccc1CCNS(=O)(=O)c1ccc(-n2cnnn2)c(C)c1 |
|  | 236 | 74.5 | Not Active |  | O=C(CSc1nnc(-c2ccco2)n1Cc1ccccc1)c1ccc(F)cc1 |
| 41.6 | 159 | 4.9 |  | 30 | COC(=O)CSc1nnc(-c2ccccc2O)n1Cc1ccccc1 |
| 12 | 36.7 | 11.7 |  |  | Cc1ccc(C(=O)CSc2nnc(COc3ccc(Cl)cc3)o2)cc1 |
| 53.8 | 550 | 33.6 |  |  | O=C(O)c1cccc(-n2nnnc2SCC(=O)c2ccccc2F)c1 |
| 11.9 | 22 | 10.8 |  |  | CCOC(=O)C(Sc1nnc(COc2ccc(CC)cc2)n1CC)C(C)C (configuration not stated) |
| 18 | 250 | 364 |  |  | Cc1ccc(S(=O)(=O)N2CCN(C(=O)CNCc3ccncc3)CC2)cc1 |
